Results published in ChEMBL document CHEMBL6121016, “Design, Synthesis, and Biological Evaluation of 1,3,4-Thiadiazole Derivatives as Novel Potent Peptide Deformylase Inhibitors for Combating Drug-Resistant Gram-Positive and -Negative Bacteria” (J Med Chem, 2025).
In brackets after ≈: the same amount, converted by molar mass.

Experiments:
Assay type in all cases: functional
Conditions in all cases: time 16-18 hrs
Staphylococcus aureus [1] = assay: Antibacterial activity against methicillin-susceptible Staphylococcus aureus ATCC 29213 after 16 to 18 hrs by broth microdilution method
Acinetobacter baumannii [2] = assay: Antibacterial activity against Acinetobacter baumannii Bio 34235 after 16 to 18 hrs by broth microdilution method
[3] = tested on: Staphylococcus epidermidis; assay: Antibacterial activity against Staphylococcus epidermidis after 16 to 18 hrs by broth microdilution method
Staphylococcus aureus [4] = assay: Antibacterial activity against methicillin-susceptible Staphylococcus aureus ATCC 13709 after 16 to 18 hrs by broth microdilution method
Acinetobacter baumannii [5] = assay: Antibacterial activity against drug-resistant Acinetobacter baumannii Bio 53272 after 16 to 18 hrs by broth microdilution method
Staphylococcus aureus [6] = assay: Antibacterial activity against methicillin-resistant Staphylococcus aureus ATCC 43300 after 16 to 18 hrs by broth microdilution method
Staphylococcus aureus [7] = assay: Antibacterial activity against methicillin-susceptible Staphylococcus aureus ATCC 25923 after 16 to 18 hrs by broth microdilution method
Staphylococcus aureus [8] = assay: Antibacterial activity against methicillin-resistant Staphylococcus aureus ATCC 33591 after 16 to 18 hrs by broth microdilution method
Escherichia coli = assay: Antibacterial activity against Escherichia coli ATCC 25922 after 16 to 18 hrs by broth microdilution method
Klebsiella pneumoniae = assay: Antibacterial activity against Klebsiella pneumoniae CICC 21611 after 16 to 18 hrs by broth microdilution method
Staphylococcus aureus [9] = assay: Antibacterial activity against methicillin-resistant Staphylococcus aureus Bio-090770 after 16 to 18 hrs by broth microdilution method

SMILES | MIC (Staphylococcus aureus [1]) [µg/mL] | MIC (Acinetobacter baumannii [2]) [µg/mL] | MIC [3] [µg/mL] | MIC (Staphylococcus aureus [4]) [µg/mL] | MIC (Acinetobacter baumannii [5]) [µg/mL] | MIC (Staphylococcus aureus [6]) [µg/mL] | MIC (Staphylococcus aureus [7]) [µg/mL] | MIC (Staphylococcus aureus [8]) [µg/mL] | MIC (Escherichia coli) [µg/mL] | MIC (Klebsiella pneumoniae) [µg/mL] | MIC (Staphylococcus aureus [9]) [µg/mL]
CCCC[C@H](CN(O)C=O)C(=O)N1CCC[C@H]1c1nnc(-c2c(F)cccc2[N+](=O)[O-])s1 | 2 (≈ 4.3 µM) | > 16 | 4 (≈ 8.59 µM) | 2 (≈ 4.3 µM) | > 16 | 2 (≈ 4.3 µM) | 2 (≈ 4.3 µM) | 1 (≈ 2.15 µM) | > 16 | > 16 | 2 (≈ 4.3 µM)
CCCC[C@H](CN(O)C=O)C(=O)N1CCC[C@H]1c1nnc(-c2cccc3ccccc23)s1 | 16 (≈ 35.4 µM) | > 16 | 2 (≈ 4.42 µM) | 16 (≈ 35.4 µM) | > 16 | 16 (≈ 35.4 µM) | 16 (≈ 35.4 µM) | 4 (≈ 8.84 µM) | > 16 | > 16 | 16 (≈ 35.4 µM)
CCCC[C@H](CN(O)C=O)C(=O)N1CCC[C@H]1c1nnc(-c2ccc(F)cc2[N+](=O)[O-])s1 | 2 (≈ 4.3 µM) | > 16 | 4 (≈ 8.59 µM) | 2 (≈ 4.3 µM) | > 16 | 2 (≈ 4.3 µM) | 4 (≈ 8.59 µM) | 1 (≈ 2.15 µM) | > 16 | > 16 | 4 (≈ 8.59 µM)
CCCC[C@H](CN(O)C=O)C(=O)N1CCC[C@H]1c1nnc(-c2sccc2C)s1 | 0.5 (≈ 1.18 µM) | 32 (≈ 75.7 µM) | 0.5 (≈ 1.18 µM) | 0.5 (≈ 1.18 µM) | 16 (≈ 37.9 µM) | 0.25 (≈ 0.592 µM) | 0.5 (≈ 1.18 µM) | 0.25 (≈ 0.592 µM) | 64 (≈ 151 µM) | 16 (≈ 37.9 µM) | 0.5 (≈ 1.18 µM)
CCCC[C@H](CN(O)C=O)C(=O)N1CCC[C@H]1c1nnc(-c2ccc([N+](=O)[O-])cc2C(F)(F)F)s1 | 1 (≈ 1.94 µM) | > 16 | 4 (≈ 7.76 µM) | 0.5 (≈ 0.97 µM) | > 16 | 0.5 (≈ 0.97 µM) | 2 (≈ 3.88 µM) | 0.5 (≈ 0.97 µM) | > 16 | > 16 | 1 (≈ 1.94 µM)
CCCC[C@H](CN(O)C=O)C(=O)N1CCC[C@H]1c1nnc(-c2ccc(C(F)(F)F)cc2)s1 | 4 (≈ 8.5 µM) | > 16 | 4 (≈ 8.5 µM) | 4 (≈ 8.5 µM) | 16 (≈ 34 µM) | 2 (≈ 4.25 µM) | 2 (≈ 4.25 µM) | 1 (≈ 2.13 µM) | > 16 | > 16 | 2 (≈ 4.25 µM)
CCCC[C@H](CN(O)C=O)C(=O)N1CCC[C@H]1c1nnc(-c2ccns2)s1 | 1 (≈ 2.44 µM) | 32 (≈ 78.1 µM) | 0.5 (≈ 1.22 µM) | 1 (≈ 2.44 µM) | 16 (≈ 39.1 µM) | 0.5 (≈ 1.22 µM) | 1 (≈ 2.44 µM) | 0.25 (≈ 0.61 µM) | 64 (≈ 156 µM) | 16 (≈ 39.1 µM) | 2 (≈ 4.88 µM)
CCCC[C@H](CN(O)C=O)C(=O)N1CCC[C@H]1c1nnc(-c2cscn2)s1 | 1 (≈ 2.44 µM) | 64 (≈ 156 µM) | 0.25 (≈ 0.61 µM) | 1 (≈ 2.44 µM) | 16 (≈ 39.1 µM) | 0.5 (≈ 1.22 µM) | 1 (≈ 2.44 µM) | 0.5 (≈ 1.22 µM) | 64 (≈ 156 µM) | 32 (≈ 78.1 µM) | 2 (≈ 4.88 µM)
CCCC[C@H](CN(O)C=O)C(=O)N1CCC[C@H]1c1nnc(-c2ccc[nH]2)s1 | 1 (≈ 2.55 µM) | > 16 | 0.5 (≈ 1.28 µM) | 1 (≈ 2.55 µM) | > 16 | 0.5 (≈ 1.28 µM) | 1 (≈ 2.55 µM) | 0.25 (≈ 0.639 µM) | > 16 | > 16 | 4 (≈ 10.2 µM)
CCCC[C@H](CN(O)C=O)C(=O)N1CCC[C@H]1c1nnc(-c2ccccn2)s1 | 1 (≈ 2.48 µM) | 32 (≈ 79.3 µM) | 0.5 (≈ 1.24 µM) | 0.5 (≈ 1.24 µM) | 16 (≈ 39.7 µM) | 0.5 (≈ 1.24 µM) | 0.5 (≈ 1.24 µM) | 0.5 (≈ 1.24 µM) | 128 (≈ 317 µM) | 32 (≈ 79.3 µM) | 1 (≈ 2.48 µM)
CCCC[C@H](CN(O)C=O)C(=O)N1CCC[C@H]1c1nnc(-c2ccc(C#N)cc2F)s1 | 0.25 (≈ 0.561 µM) | > 16 | 2 (≈ 4.49 µM) | 0.125 (≈ 0.281 µM) | 8 (≈ 18 µM) | 0.125 (≈ 0.281 µM) | 0.125 (≈ 0.281 µM) | 0.125 (≈ 0.281 µM) | 8 (≈ 18 µM) | > 16 | 0.5 (≈ 1.12 µM)
CCCC[C@H](CN(O)C=O)C(=O)N1CCC[C@H]1c1nnc(-c2ccccc2F)s1 | 1 (≈ 2.38 µM) | 16 (≈ 38 µM) | 2 (≈ 4.76 µM) | 0.5 (≈ 1.19 µM) | 8 (≈ 19 µM) | 0.5 (≈ 1.19 µM) | 0.5 (≈ 1.19 µM) | 0.5 (≈ 1.19 µM) | 16 (≈ 38 µM) | > 16 | 1 (≈ 2.38 µM)
CCCC[C@H](CN(O)C=O)C(=O)N1CCC[C@H]1c1nnc(-c2ccncc2)s1 | 0.5 (≈ 1.24 µM) | 64 (≈ 159 µM) | 0.5 (≈ 1.24 µM) | 0.5 (≈ 1.24 µM) | 32 (≈ 79.3 µM) | 0.5 (≈ 1.24 µM) | 1 (≈ 2.48 µM) | 0.25 (≈ 0.62 µM) | 128 (≈ 317 µM) | 32 (≈ 79.3 µM) | 1 (≈ 2.48 µM)
CN[C@H](CC(C)C)C(=O)N[C@H]1C(=O)N[C@@H](CC(N)=O)C(=O)N[C@H]2C(=O)N[C@H]3C(=O)N[C@H](C(=O)N[C@H](C(=O)O)c4cc(O)cc(O)c4-c4cc3ccc4O)[C@H](O)c3ccc(c(Cl)c3)Oc3cc2cc(c3O[C@@H]2O[C@H](CO)[C@@H](O)[C@H](O)[C@H]2O[C@H]2C[C@](C)(N)[C@H](O)[C@H](C)O2)Oc2ccc(cc2Cl)[C@H]1O [VANCOMYCIN] |  | 16 (≈ 11 µM) | 16 (≈ 11 µM) |  | 16 (≈ 11 µM) | 0.25 (≈ 0.173 µM) |  |  | 16 (≈ 11 µM) | 16 (≈ 11 µM) | 
